According to patent US20260275317A1, “CHIMERIC ENDOLYSINS WITH ACTIVITY AGAINST STREPTOCOCCI AND STAPHYLOCOCCI” (UNIVERSITEIT GENT, priority 2023, published 2026):

Legend:
[1] = system: S. uberis in mastitic raw cow's milk; test: Challenge of mastitic raw cow's milk; format: cell-based, Streptococcus uberis; details: milk of 4 cows, 8 h; 0.5 μM NC5, 50 μg/mL cloxacillin or both
Experimental: Raw cow's milk from S. uberis infected dairy cows was supplied by the milk control center of Flanders (MCC Vlaanderen). Upon arrival, the milk was serially diluted and plated on BHI agar to determine the bacterial load. Only milk with >10^5 […] CFU/mL S. uberis was included as a selection criterium. If needed, the raw milk was incubated during 8 h at 37° C. to artificially increase the initial bacterial load. […] Upon incubation at 37° C., every 2 h, 20 μL was transferred from each well to 180 μL dPBS, serially diluted and plated on BHI agar. Plates were incubated overnight and CFU/mL were calculated the next day. Undiluted, mastitic milk was always pipetted with ClipTip Pipette Tips (Westburg, The Netherlands) due to high viscosity. Mastitis isolates were confirmed as S. uberis by MALDI-TOF MS biotyping.

[2] = system: S. uberis-infected murine mammary glands; test: Mouse model of S. uberis mastitis: bacterial load and clinical symptoms; format: in vivo; details: 30 μg cloxacillin stand-alone
Excerpt: (§1) All experimental procedures on mice were executed at the Faculty of Veterinary Medicine of Ghent University (Merelbeke, Belgium). Breeding pairs of female and male CD-1 mice (Envigo, The Netherlands) were allowed to mate during two weeks, after which the dams gave birth approximately seven days later. Twelve days postpartum, the lactating dams were intraductally inoculated with a blunted 32 gauge pediatric needle in the fourth inguinal mammary gland pair after properly disinfecting the teat. These intraductal inoculations were always performed under general gas anesthesia, using a mixture of medical oxygen and isoflurane at 2.5-3.0% for induction and 1.5-2.0% for maintenance. The long-acting analgesic buprenorphine was administered at 10 μg/kg intraperitoneally for post-surgical pain relief. An inoculum dose of approximately […] colony forming units (CFU) of a clinical bovine mastitis S. uberis isolate in 100 μl dPBS was intraductally inoculated at 1 h post-weaning and mice were grouped ad random at 12 h post-infection (p.i.) and placed under gas anesthesia a second time to administer intramammary treatment. […] The treated mice were sedated 16 h p.i. (i.e., 4 h post-treatment). The therapeutics were diluted in dPBS to their desired concentration, mixed by pipetting and kept on melting ice until they were administered intraductally within 1 h after preparation. […]

[3] = system: S. uberis-infected murine mammary glands; test: Mouse model of S. uberis mastitis: Ly6G immunohistochemistry (neutrophil influx); format: in vivo; details: 30 μg cloxacillin stand-alone
Excerpt: as §1

[4] = system: S. uberis-infected murine mammary glands; test: Mouse model of S. uberis mastitis: inflammatory protein profiling in mammary gland lysates; format: in vivo; details: 30 μg cloxacillin stand-alone
Excerpt: All experimental procedures on mice were executed at the Faculty of Veterinary Medicine of Ghent University (Merelbeke, Belgium). Breeding pairs of female and male CD-1 mice (Envigo, The Netherlands) were allowed to mate during two weeks, after which the dams gave birth approximately seven days later. Twelve days postpartum, the lactating dams were intraductally inoculated with a blunted 32 gauge pediatric needle in the fourth inguinal mammary gland pair after properly disinfecting the teat. These intraductal inoculations were always performed under general gas anesthesia, using a mixture of medical oxygen and isoflurane at 2.5-3.0% for induction and 1.5-2.0% for maintenance. The long-acting analgesic buprenorphine was administered at 10 μg/kg intraperitoneally for post-surgical pain relief. An inoculum dose of approximately […] colony forming units (CFU) of a clinical bovine mastitis S. uberis isolate in 100 μl dPBS was intraductally inoculated at 1 h post-weaning and mice were grouped ad random at 12 h post-infection (p.i.) and placed under gas anesthesia a second time to administer intramammary treatment. […] The treated mice were sedated 16 h p.i. (i.e., 4 h post-treatment). The therapeutics were diluted in dPBS to their desired concentration, mixed by pipetting and kept on melting ice until they were administered intraductally within 1 h after preparation. Inoculum preparation was done by growing S. uberis to stationary phase in brain heart infusion (BHI), after which cells were washed with dPBS and diluted in dPBS to the desired concentration based on OD600 measurements.
The host response to the experimental mammary gland infection and subsequent therapy was investigated by determining the levels of inflammatory cytokines and chemokines in mammary gland lysates, obtained by mixing the homogenates with 300 μL caspase lysis buffer (CLB) containing protease inhibitors, and subsequent centrifugation (12,000 g; 4° C.; 20 min). Protein concentration of these lysates was determined using the Bradford protein assay. Standardization of the mammary gland lysates was done by dilution in CLB to assure equal protein concentrations. Levels of the selected inflammatory mediators TNF-α, MCP-1, M-& G-CSF as well as IL-1α, -1β, -6, & -8, were determined on mammary gland lysates using a ProcartaPlex Immunoassay. Quantification of CHI3L1 and LCN2 was performed by ELISA.

Cc1onc(-c2ccccc2Cl)c1C(=O)N[C@@H]1C(=O)N2[C@@H]1SC(C)(C)[C@@H]2C(=O)O [cloxacillin]
log10 reduction of S. uberis versus PBS control [1]: significant (p<0.05) reductions in all 4 mastitic milk samples at 8 h
decrease in CFU numbers versus placebo [2]: 630 fold
decrease of bacterial load versus placebo ([2]; intramammary, 4 h post-treatment, all mice): 55 fold
reduced neutrophil influx (Ly6G-positive staining) versus placebo [3]: 1.8 fold
CHI3L1 reduction versus placebo [4]: 1.4 fold
IL-1α decrease versus placebo [4]: 1.2 fold
IL-1β decrease versus placebo [4]: 1.3 fold
IL-6 decrease versus placebo [4]: 2.0 fold
LCN2 reduction versus placebo [4]: 1.2 fold
MCP-1 reduction versus placebo [4]: 1.5 fold
MIP-2 decrease versus placebo [4]: 1.6 fold
TNF-α decrease versus placebo [4]: 1.4 fold
